The source of these data is ChEMBL document CHEMBL4385613, “Discovery of Conformational Control Inhibitors Switching off the Activated c-KIT and Targeting a Broad Range of Clinically Relevant c-KIT Mutants” (J Med Chem, 2019).

Activity calls are given as the source filed them. No cut-off for these calls is given here. A value given as a limit tells only on which side of the number the result lay.

Series [1] has as its system GIST430. Put plainly: Antiproliferative activity against human GIST430 cells harboring c-KIT exon 11 primary in-frame V560-L576 deletion mutant and exon 13 heterozygous secondary missense V654A mutant assessed as reduction in cell viability by MTS assay. The series is classed as functional.
The target of series [2] is Mast/stem cell growth factor receptor Kit (Homo sapiens, UniProt P10721, N822K/V560G). Put plainly: Inhibition of human c-KIT A loop exon 11/17 V560G/N822K double mutant using poly (Glu,Tyr) 4:1 as substrate in presence of 33P-gamma-ATP by hotspot kinase assay.
The next series relates to PC-3. Put plainly: Antiproliferative activity against human PC3 assessed as reduction in cell viability after 72 hrs by MTS assay. The note with it: PC-3, 72 h. The series is classed as functional. Background: Tetrazolium dyes change colour on reduction, which living cells bring about.
The test system of series [3] is Mast/stem cell growth factor receptor Kit (Homo sapiens), P10721 [D820Y]. The settings on record: at 100 nM.
Description: Inhibition of human c-KIT A loop exon 17 D820Y single mutant at 100 nM using poly (Glu,Tyr) 4:1 as substrate in presence of 33P-gamma-ATP by hotspot kinase assay relative to control
The test system of series [4] is Mast/stem cell growth factor receptor Kit (Homo sapiens), P10721 [A829P]. Put plainly: Inhibition of human c-KIT A loop exon 18 A829P single mutant at 100 nM using poly (Glu,Tyr) 4:1 as substrate in presence of 33P-gamma-ATP by hotspot kinase assay relative to control.
Series [5] relates to Mast/stem cell growth factor receptor Kit (Homo sapiens), P10721 [V560G]. Kind of series: Inhibition of human c-KIT JM domain exon 11 V560G single mutant at 100 nM using poly (Glu,Tyr) 4:1 as substrate in presence of 33P-gamma-ATP by hotspot kinase assay relative to control.
The test system of series [6] is Mast/stem cell growth factor receptor Kit (Homo sapiens), P10721 [V560G,N822K]. Put plainly: Inhibition of human c-KIT A loop exon 11/17 V560G/N822K double mutant at 10 nM using poly (Glu,Tyr) 4:1 as substrate in presence of 33P-gamma-ATP by hotspot kinase assay relative to control.
Series [7] concerns GISTT1. Kind of series: Antiproliferative activity against human GISTT1 cells harboring heterozygous V560-Y578 deletion mutant assessed as reduction in cell viability by MTS assay. Format: functional.
Series [8] is described as follows: AUC in ICR mouse at 10 mg/kg, po administered as single dose measured up to 24 hrs by LC-MS/MS analysis. The series is classed as ADME, organism-based. On the set-up: dose 10 mg/kg, time < 24 hr, route oral. The settings on record: in vivo.
The nature of series [9]: Cmax in ICR mouse at 10 mg/kg, po administered as single dose measured up to 24 hrs by LC-MS/MS analysis. The series is classed as ADME, organism-based. Also noted: dose 10 mg/kg, route oral. The note with it: in vivo.
For series [10], the system named is Mast/stem cell growth factor receptor Kit (Homo sapiens), P10721 [UNDEFINED MUTATION]. Kind of series: Inhibition of c-KIT V560-L576 deletion/V654A double mutant phosphorylation in human GIST430 cells assessed as decrease in phosphorylation of MEK at 10 to 100 nM measured after 24 to 72 hrs by Western blot analysis. The series is classed as cell-based. For orientation: In western blotting, separated proteins are transferred to a membrane and probed.

Series [11] has as its system GIST430. Kind of series: Antitumor activity against human GIST430 cells harboring c-KIT exon 11 primary in-frame V560-L576 deletion mutant and exon 13 heterozygous secondary missense V654A mutant xenografted in NOD-SCID mouse assessed as tumor growth inhibition at 25 mg/kg, po administered for 2 weeks with 2 days rest after day 5 and measured thrice per week up to 21 days during compound dosing. The series is classed as functional, organism-based. On the technique in general: In xenograft studies the graft and the host belong to different species.

In series [12] the test system is Mast/stem cell growth factor receptor Kit (Homo sapiens), P10721 [UNDEFINED MUTATION]. Put plainly: Inhibition of c-KIT V560-L576 deletion/V654A double mutant phosphorylation in human GIST430 cells assessed as decrease in phosphorylation of AKT at 10 to 100 nM measured after 24 to 72 hrs by Western blot analysis. Format: cell-based.
For series [13], the system named is Mast/stem cell growth factor receptor Kit (Homo sapiens), P10721 [K642E]. Kind of series: Inhibition of human c-KIT ATP binding domain exon 13 K642E single mutant at 100 nM using poly (Glu,Tyr) 4:1 as substrate in presence of 33P-gamma-ATP by hotspot kinase assay relative to control.
The test system of series [14] is GISTT1. Kind of series: Antiproliferative activity against human GISTT1 cells harboring heterozygous V560-Y578 del mutation assessed as reduction in cell viability by methylene blue staining based assay. Format: functional.

Chain of Mast/stem cell growth factor receptor Kit (Homo sapiens), P10721 [UNDEFINED MUTATION] (P10721 whole entry, looked up, stated change not applied, the tested form may be a part): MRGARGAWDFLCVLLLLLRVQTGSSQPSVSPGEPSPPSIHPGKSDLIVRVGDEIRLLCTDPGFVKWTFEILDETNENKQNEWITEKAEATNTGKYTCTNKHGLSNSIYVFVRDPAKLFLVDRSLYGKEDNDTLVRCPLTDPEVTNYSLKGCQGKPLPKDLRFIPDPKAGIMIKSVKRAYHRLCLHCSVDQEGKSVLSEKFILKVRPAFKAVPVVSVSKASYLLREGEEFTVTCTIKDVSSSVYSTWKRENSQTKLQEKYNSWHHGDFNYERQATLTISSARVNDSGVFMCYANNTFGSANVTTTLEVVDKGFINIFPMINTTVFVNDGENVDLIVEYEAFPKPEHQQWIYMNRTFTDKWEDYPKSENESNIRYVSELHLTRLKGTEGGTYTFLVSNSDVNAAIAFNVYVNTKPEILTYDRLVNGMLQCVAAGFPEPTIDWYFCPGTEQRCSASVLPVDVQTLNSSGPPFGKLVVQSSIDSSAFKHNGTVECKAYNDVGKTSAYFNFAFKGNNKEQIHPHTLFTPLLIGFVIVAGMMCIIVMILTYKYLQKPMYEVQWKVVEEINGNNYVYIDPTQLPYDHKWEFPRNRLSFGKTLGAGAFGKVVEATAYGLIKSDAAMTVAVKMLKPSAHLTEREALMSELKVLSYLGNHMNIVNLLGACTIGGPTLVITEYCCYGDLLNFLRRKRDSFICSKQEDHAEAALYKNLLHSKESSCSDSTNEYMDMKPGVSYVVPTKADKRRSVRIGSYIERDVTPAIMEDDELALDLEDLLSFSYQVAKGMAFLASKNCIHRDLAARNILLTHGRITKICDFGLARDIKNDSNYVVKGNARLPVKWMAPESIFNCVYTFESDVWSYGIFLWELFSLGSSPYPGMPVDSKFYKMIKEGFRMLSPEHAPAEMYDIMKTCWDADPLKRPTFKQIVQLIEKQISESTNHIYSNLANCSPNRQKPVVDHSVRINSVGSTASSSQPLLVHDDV
Chain of Mast/stem cell growth factor receptor Kit (Homo sapiens), P10721 [D820Y] (P10721 whole entry D820Y): as the sequence (P10721 whole entry, looked up, stated change not applied, the tested form may be a part) above, with D820Y counted along it
Chain of Mast/stem cell growth factor receptor Kit (Homo sapiens), P10721 [A829P] (P10721 whole entry A829P, the tested form may be a part): as the sequence (P10721 whole entry, looked up, stated change not applied, the tested form may be a part) above, with A829P counted along it
Chain of Mast/stem cell growth factor receptor Kit (Homo sapiens), P10721 [K642E] (P10721 whole entry K642E, the tested form may be a part): as the sequence (P10721 whole entry, looked up, stated change not applied, the tested form may be a part) above, with K642E counted along it
Chain of Mast/stem cell growth factor receptor Kit (Homo sapiens), P10721 [V560G] (P10721 whole entry V560G, the tested form may be a part): as the sequence (P10721 whole entry, looked up, stated change not applied, the tested form may be a part) above, with V560G counted along it
Chain of Mast/stem cell growth factor receptor Kit (Homo sapiens), P10721 [V560G,N822K] (P10721 whole entry V560G/N822K): as the sequence (P10721 whole entry, looked up, stated change not applied, the tested form may be a part) above, with V560G, N822K counted along it
Chain of Mast/stem cell growth factor receptor Kit (P10721 26-976 V560G/N822K limits assumed): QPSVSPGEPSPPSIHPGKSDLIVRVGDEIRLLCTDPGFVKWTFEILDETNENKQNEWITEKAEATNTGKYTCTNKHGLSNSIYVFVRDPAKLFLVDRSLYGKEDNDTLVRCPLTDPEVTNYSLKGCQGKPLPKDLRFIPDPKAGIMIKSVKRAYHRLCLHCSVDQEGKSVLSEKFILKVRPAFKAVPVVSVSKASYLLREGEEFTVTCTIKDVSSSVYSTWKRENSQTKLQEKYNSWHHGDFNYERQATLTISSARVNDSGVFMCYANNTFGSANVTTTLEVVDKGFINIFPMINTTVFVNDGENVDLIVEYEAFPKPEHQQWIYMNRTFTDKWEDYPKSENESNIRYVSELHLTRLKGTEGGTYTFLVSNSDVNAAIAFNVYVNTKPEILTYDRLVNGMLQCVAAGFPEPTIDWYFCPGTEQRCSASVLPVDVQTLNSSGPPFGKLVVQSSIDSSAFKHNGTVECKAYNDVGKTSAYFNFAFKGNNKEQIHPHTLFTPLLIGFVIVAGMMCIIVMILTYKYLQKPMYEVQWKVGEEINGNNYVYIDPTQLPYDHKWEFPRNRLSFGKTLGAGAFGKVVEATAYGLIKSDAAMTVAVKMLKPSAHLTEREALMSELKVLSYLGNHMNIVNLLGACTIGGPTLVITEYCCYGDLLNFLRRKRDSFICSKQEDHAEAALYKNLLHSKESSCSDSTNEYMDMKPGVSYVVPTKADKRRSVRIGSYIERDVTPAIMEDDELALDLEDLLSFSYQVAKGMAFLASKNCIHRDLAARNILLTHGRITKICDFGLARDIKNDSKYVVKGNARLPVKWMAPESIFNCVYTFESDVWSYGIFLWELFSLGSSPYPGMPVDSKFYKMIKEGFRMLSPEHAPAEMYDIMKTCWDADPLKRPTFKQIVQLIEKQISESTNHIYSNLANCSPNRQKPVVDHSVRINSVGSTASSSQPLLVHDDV

In general, GI50 refers to the concentration giving 50% growth inhibition. For orientation: IC50 means the concentration that inhibits the measured activity by half. The inhibition is the drop in the measured response relative to a control, in per cent. The AUC is the area under the concentration-time curve, a measure of exposure. High values mean more exposure, low ones less exposure. One may read the Cmax as the peak of the concentration-time curve. Consider `CCc1cc(NC(=O)Nc2ccc(-c3cnc(Nc4cc(N5CCN(CC)CC5)ncn4)s3)cc2)no1`, for which the 50% growth inhibitory concentration (GI50) was 1 nM with GIST430 [1], over 20000 nM with PC-3, 2.2 nM in the series with GISTT1 [7] and 2.2 nM in the series on GISTT1 [14]. Further, the IC50 in series [2] came to 0.18 nM. Also, the inhibition in [3] amounted to 100%; in series [4], 99%; in [5] it was 99%; in [6], 94%; in series [13] it was 99%. In addition, the AUC at 24 h in [8] turned out to be 2800 ng·h/mL. The peak level in [9] (Cmax) was 562 ng/mL. The inhibition result in [10] and in series [12] was “Active” each time. Besides, the TGI result with GIST430 [11] is “Active”.
